According to patent US8785452B2, “Anti-infective compounds” (priority 2008, dated 2014):
≈ marks a conversion by molar mass, not a printed value. Read-outs that look alike come from different tables or passages of the source.

What was measured:
C. jeikeium = experiment: Antimicrobial spectrum; format: cell-based, Corynebacterium; conditions: for MIC: Corynebacterium C. jeikeium
M. bovis BCG Pasteur = experiment: microbe, parasite or virus in culture; format: cell-based; conditions: Mycobacterium tuberculosis variant bovis BCG
[1] = system: M. tuberculosis clinical isolates; format: cell-based, Mycobacterium tuberculosis
M. tuberculosis H37Rv [2] = experiment: MIC, in vitro bacterial growth assay; format: cell-based; conditions: Mycobacterium tuberculosis
M. smegmatis mc^2 155 = experiment: MIC, in vitro bacterial growth assay; format: cell-based, Mycobacterium smegmatis; conditions: for MIC: Mycolicibacterium smegmatis, MC^2155
C. striatum = experiment: Antimicrobial spectrum; format: cell-based, Corynebacterium; conditions: for MIC: Corynebacterium C. striatum
[3] = system: panel of cell lines derived from different body tissue; experiment: Cytotoxicity assay (resazurin), whole panel; conditions: 5 days co-incubation, 133 up to 100 μM
[4] = system: M. tuberculosis Beijing 1237; experiment: MIC, in vitro bacterial growth assay; format: cell-based; conditions: Mycobacterium tuberculosis, BEIJING1237; laboratory strain Beijing 1237
[5] = system: Fungi: Candida albicans, C. glabrata, C. parapsilosis; experiment: Antimicrobial spectrum; format: cell-based; conditions: Candida panel
Antimicrobial spectrum [6] = format: cell-based; conditions: Gram-negative panel
Antimicrobial spectrum [7] = format: cell-based; conditions: Gram-positive panel
M. tuberculosis H37Ra = experiment: MIC, in vitro bacterial growth assay; format: cell-based; conditions: Mycobacterium tuberculosis
M. bovis BCG Tokyo = experiment: microbe, parasite or virus in culture; format: cell-based; conditions: Mycobacterium tuberculosis variant bovis BCG
HEK293-Kidney = experiment: Cytotoxicity assay (resazurin); format: cell-based; conditions: 5 days
Protocol: (§1) In order to address compound toxicity, seven cell lines originating from different body tissues were cultivated in the presence of 3-fold dilutions of compounds starting from 100 μM. After 5 days of culture, cell viability was assessed by the resazurin test. Briefly, cells were incubated with 10 μg/mL of resazurin (Sigma-Aldrich St. Louis, Mo.) for 4 h at 37° C. under 5% CO2. Resofurin fluorescence (RFU) was measured as indicated above. Percentage of toxicity on cells was calculated as follows: Cytotoxicity (%)=(RFUDMSO−RFUBlank)−(RFUcompound−RFUblank)/(RFUDMSO−RFUBlank)×100. Percentage of cytotoxicity was plotted against compound concentration and the minimal toxic concentration (MTC50) was determined by non-linear regression analysis as the lowest compound concentration where fifty percent toxicity was observed on the corresponding cell line.

BJ-Skin = experiment: Cytotoxicity assay (resazurin); format: cell-based; conditions: 5 days
Protocol: as §1

MRC5-Lung = experiment: Cytotoxicity assay (resazurin); format: cell-based; conditions: 5 days
Protocol: as §1

HepG2-Hepatocytes = experiment: Cytotoxicity assay (resazurin); format: cell-based; conditions: 5 days
Protocol: as §1

SK-N-SH-Brain = experiment: Cytotoxicity assay (resazurin); format: cell-based; conditions: 5 days
Protocol: as §1

M. tuberculosis H37Rv [8] = experiment: Conventional CFU determination in infected macrophages; format: cell-based, Mycobacterium tuberculosis
in vitro = conditions: human
[9] = system: Gram-negative: Acinetobacter baumannii, Escherichia coli, Enterobacter cloacae, E. aerogenes, Klebsiella oxytoca, Pseudomonas aeruginosa, Salmonella enteridis …; experiment: Antimicrobial spectrum; format: cell-based; conditions: Gram-negative panel, clinical isolates from CHU d'Angers
[10] = system: Gram-positive: Staphylococcus aureus, S. epidermis, S. capitis, S. xylosus, Micrococcus luteus, Listeria innocua, Lactobacillus gallinarum, group G …; experiment: Antimicrobial spectrum; format: cell-based; conditions: Gram-positive panel, clinical isolates from CHU d'Angers
[11] = system: Primary human macrophages; experiment: Cytotoxicity assay (resazurin); conditions: 5 days
BCG Pasteur-Tokyo = experiment: microbe, parasite or virus in culture; format: cell-based; conditions: Mycobacterium tuberculosis variant bovis BCG
Primary BMDM = experiment: Cytotoxicity assay (resazurin); conditions: 5 days
Jurkat-T-cell = experiment: Cytotoxicity assay (resazurin); format: cell-based; conditions: 5 days
Protocol: as §1

THP-1-Monocytes = experiment: Cytotoxicity assay (resazurin); format: cell-based; conditions: 5 days
Protocol: as §1

[12] = laboratory strain H37Rv, read-out: MIC
[13] = laboratory strain H37Ra, read-out: MIC
[14] = compounds 5 μM, Raw264.7, mouse bone marrow-derived macrophages, human primary macrophages, five days after infection

| Compound | MIC (C. jeikeium) | MIC (M. bovis BCG Pasteur) | Range of MICs for multiple strains ([1]; Drug Sensitive, Tissue) | Range of MICs for multiple strains ([1]; INH^R RIF^R Strep^R, Sputum) | Range of MICs for multiple strains ([1]; INH^R RIF^R Strep^R, Tissue) | Range of MICs for multiple strains ([1]; MDR, Sputum) | Range of MICs for multiple strains ([1]; MDR, Tissue) | Range of MICs for multiple strains ([1]; RIF^R, Sputum) | Range of MICs for multiple strains ([1]; RIF^R, Tissue) | Range of MICs for multiple strains ([1]; XDR, Sputum) | Range of MICs for multiple strains ([1]; XDR, Tissue) | MIC (M. tuberculosis H37Rv [2]; [12]) | MIC (M. smegmatis mc^2 155) | MIC (C. striatum) | cytotoxicity against the panel of cell lines [3] | Range of MTC50 (HEK293-Kidney) | Range of MTC50 (BJ-Skin) | Range of MTC50 (MRC5-Lung) | Range of MTC50 (HepG2-Hepatocytes) | Range of MTC50 (SK-N-SH-Brain) | further results |
| --- | --- | --- | --- | --- | --- | --- | --- | --- | --- | --- | --- | --- | --- | --- | --- | --- | --- | --- | --- | --- | --- |
| COc1ccc(OCCNC(=O)c2cc([N+](=O)[O-])cc([N+](=O)[O-])c2)cc1 [compound 4, N-(2-(4-Methoxyphenoxy)ethyl)-3,5-dinitrobenzamide] | 2.7 µM (≈ 0.976 µg/mL) | 1.2 µM (≈ 0.434 µg/mL) | 0.38 µM | 0.1 µM | 0.05 to 0.1 µM | 0.05 to 0.1 µM | 0.05 to 0.1 µM | 0.05 µM | 0.02 to 0.05 µM | 0.02 to 0.05 µM | 0.05 to 0.1 µM | 0.6 µM (≈ 0.217 µg/mL) | 1.2 µM (≈ 0.434 µg/mL) | 27 µM (≈ 9.76 µg/mL) | no cytotoxicity | >100 µM | >100 µM | >100 µM | >100 µM | >100 µM | MIC [4]: 0.3 µM (≈ 0.108 µg/mL); MIC [5]: > 250 µM; MIC (Antimicrobial spectrum [6]): > 250 µM; MIC (Antimicrobial spectrum [7]): > 250 µM; MIC (M. tuberculosis H37Ra; [13]): 1.2 µM (≈ 0.434 µg/mL); MIC (M. bovis BCG Tokyo): 1.2 µM (≈ 0.434 µg/mL); decrease in the number of CFUs (M. tuberculosis H37Rv [8]; [14]): ten-fold decrease |
| Cc1cccn2c(=O)c(C=O)c(Nc3cccc(Cl)c3)nc12 [compound 133, 2-(3-Chlorophenylamino)-9-methyl-4-oxo-4H-pyrido[1,2-a]pyrimidine-3-carbaldehyde] | – | 2 µM (≈ 0.627 µg/mL) | 2.5 to 5 µM | 0.3 to 1.2 µM | 1.2 µM | 0.3 to 1.2 µM | 1.2 µM | 2.5 µM | 1.2 µM | 0.6 to 2.5 µM | 0.3 to 5 µM | – | – | – | no cytotoxicity | >100 µM | >100 µM | >100 µM | >100 µM | >100 µM | antimicrobial effect (C. jeikeium; C. jeikeium, clinical isolates from CHU d'Angers): NE (NE: No effect up to 100 μg/mL equivalent to 320 μM); MIC (M. tuberculosis H37Rv [2]; H37RV): 2 µM (≈ 0.627 µg/mL); MIC (M. smegmatis mc^2 155; mc^2 155, read-out: MIC): > 100 µM; MIC (μM) (M. smegmatis mc^2 155; mc^2 155): no effect; antimicrobial effect (C. striatum; C. striatum, clinical isolates from CHU d'Angers): NE (NE: No effect up to 100 μg/mL equivalent to 320 μM); selectivity ratio (in vitro): > 50; antimicrobial effect ([5]; clinical isolates from CHU d'Angers): NE (NE: No effect up to 100 μg/mL equivalent to 320 μM); antimicrobial effect [9]: NE (NE: No effect up to 100 μg/mL equivalent to 320 μM); antimicrobial effect [10]: NE (NE: No effect up to 100 μg/mL equivalent to 320 μM); MIC (M. tuberculosis H37Ra; H37RA): 2 µM (≈ 0.627 µg/mL); Range of MTC50 [11]: >100 µM; MIC (BCG Pasteur-Tokyo): 2 µM (≈ 0.627 µg/mL); Range of MTC50 (Primary BMDM): >100 µM; Range of MTC50 (Jurkat-T-cell): >100 µM; Range of MTC50 (THP-1-Monocytes): >100 µM; decrease in the number of CFUs (M. tuberculosis H37Rv [8]; human and mouse cells, seven days after infection, 232 at 20 μM): ten-fold decrease |
| O=C(NCCOCc1ccccc1)c1cc([N+](=O)[O-])cc([N+](=O)[O-])c1 [compound 24, N-(2-(Benzyloxy)ethyl)-3,5-dinitrobenzamide] | 2.7 µM (≈ 0.932 µg/mL) | 1.2 µM (≈ 0.414 µg/mL) | 0.31 µM | 0.08 µM | 0.04 to 0.08 µM | 0.04 to 0.08 µM | 0.04 to 0.08 µM | 0.08 µM | 0.08 µM | 0.04 to 0.08 µM | 0.08 µM | 0.6 µM (≈ 0.207 µg/mL) | 0.6 µM (≈ 0.207 µg/mL) | 27 µM (≈ 9.32 µg/mL) | no cytotoxicity | >100 µM | >100 µM | >100 µM | >100 µM | >100 µM | MIC [4]: 0.1 µM (≈ 0.0345 µg/mL); MIC [5]: > 250 µM; MIC (Antimicrobial spectrum [6]): > 250 µM; MIC (Antimicrobial spectrum [7]): > 250 µM; MIC (M. tuberculosis H37Ra; [13]): 1.3 µM (≈ 0.449 µg/mL); MIC (M. bovis BCG Tokyo): 0.6 µM (≈ 0.207 µg/mL); decrease in the number of CFUs (M. tuberculosis H37Rv [8]; [14]): ten-fold decrease |
